The values that follow come from publication PMC6706801, “Palladium-Catalyzed Hydroxycarbonylation of (Hetero)aryl Halides for DNA-Encoded Chemical Library Synthesis” (Bioconjugate Chemistry, 2019).

The assay addresses T1, soluble epoxide hydrolase (sEH, EPHX2) (Homo sapiens, UniProt P34913).
T1 sequence (P34913 1-555): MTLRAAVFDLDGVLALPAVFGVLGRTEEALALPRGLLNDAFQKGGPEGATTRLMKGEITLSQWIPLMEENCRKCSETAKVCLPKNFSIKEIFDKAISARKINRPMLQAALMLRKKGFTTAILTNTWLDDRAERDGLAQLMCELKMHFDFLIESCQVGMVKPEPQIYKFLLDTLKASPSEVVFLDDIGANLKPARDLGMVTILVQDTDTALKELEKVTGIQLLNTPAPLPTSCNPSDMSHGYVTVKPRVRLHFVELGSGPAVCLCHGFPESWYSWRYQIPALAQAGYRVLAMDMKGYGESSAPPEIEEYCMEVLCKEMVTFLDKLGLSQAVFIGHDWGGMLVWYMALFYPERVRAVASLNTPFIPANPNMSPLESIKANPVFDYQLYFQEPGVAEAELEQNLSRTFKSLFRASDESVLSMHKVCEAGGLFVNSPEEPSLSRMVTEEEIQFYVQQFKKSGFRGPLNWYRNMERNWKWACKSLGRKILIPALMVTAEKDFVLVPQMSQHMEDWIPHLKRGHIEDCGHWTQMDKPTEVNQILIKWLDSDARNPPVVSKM
Briefly: fluorescent kinetic enzyme assay (off-DNA hit resynthesised after DECL selection). It is filed as biochemical.

For orientation: Ki means a dissociation constant, usually derived from enzyme kinetics or from competition with a known ligand. A higher Ki goes with weaker binding. In turn, `Cc1cccc(CCNC(=O)c2ccc(F)c(CN(C)Cc3cc(C(=O)NCCc4cccc(C)c4)ccc3F)c2)c1` [compound 5, 5] gave an inhibition constant Ki of 9 ± 2 nM.
